From PMC7363588, “Mapping of the FGF14:Nav1.6 complex interface reveals FLPK as a functionally active peptide modulating excitability” (Physiological Reports, 2020)
Where “and” joins values, the source holds several entries; their conditions need not be identical. Equal entries are not always repeated. Entries after “also recorded” stand apart in the source; their conditions may differ. Marks after values point to notes of the source that are not given here. Peptide text beside a SMILES is read from it.

Target: T1, Nav1.6 in the presence of FGF14 (FGF14-1b-GFP) (Homo sapiens, UniProt Q92915)
T1 construct: expressed in transfected cells
T1 sequence (Q92915 1-252 isoform Q92915-2): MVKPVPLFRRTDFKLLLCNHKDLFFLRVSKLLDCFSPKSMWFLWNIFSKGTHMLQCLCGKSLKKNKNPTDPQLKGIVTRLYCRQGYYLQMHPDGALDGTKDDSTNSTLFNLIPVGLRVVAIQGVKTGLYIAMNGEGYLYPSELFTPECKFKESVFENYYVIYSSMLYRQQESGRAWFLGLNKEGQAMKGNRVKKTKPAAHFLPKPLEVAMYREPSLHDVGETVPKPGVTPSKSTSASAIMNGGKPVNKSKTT
Test: Whole-cell patch-clamp, HEK-Nav1.6 cells expressing FGF14-GFP
Type: cell-based
Conditions: 50 μM FLPK
From the text: Plasmids used in this study derived from the following clones: human FGF14‐1b isoform (accession number: NM_175929.2) and human Nav1.6 (accession number: NM_014191.3). The CLuc‐FGF14, CD4‐Nav1.6‐NLuc, constructs and the pcDNA3.1 vector (Invitrogen, Carlsbad, CA) were engineered and characterized as previously described (Goetz et al., 2009; Shavkunov et al., 2012,2013,2015; Ali et al., 2016, 2018; Wadsworth et al., 2019). The plasmid pGL3 expressing full length Firefly (Photinus pyralis) luciferase was a gift from Dr. P. Sarkar (Department of Neurology, UTMB). For protein purification studies, cDNAs encoding FGF14‐1b (accession number NP_787125; aa 64–252) or the C‐terminal tail of Nav1.6 (accession number #NP_001171455; aa 1756–1939) were subcloned into suitable pET bacterial expression vectors (pET28a‐FGF14; pET30a‐Nav1.6) with a 6X His‐tag at the N‐terminal site; these plasmids were a gift of Dr. Moosa Mohammadi (NYU, Langone Medical Center). The mutation coding for FGF14^V160A was generated by site‐directed mutagenesis and PCR using FGF14‐1b as a template described previously (Ali et al., 2016). For electrophysiological studies FGF14‐GFP (human) and FGF14‐ΔNT‐GFP (human) were cloned into the GFP plasmid (pQBI‐fC2; Quantum Biotechnology Inc., Montreal, Canada) as previously described.
HEK293 cells were maintained in DMEM and F‐12 (Invitrogen, Carlsbad, CA), supplemented with 0.05% glucose, 0.5 mM pyruvate, 10% fetal bovine serum, 100 units/ml penicillin, and 100 µg/ml streptomycin (Invitrogen), and incubated at 37 °C with 5% CO2. HEK293 cells stably expressing the human Nav1.6 channel (hereafter referred to as HEK‐Nav1.6 cells) were maintained similarly except for the addition of 500 μg/ml G418 (Invitrogen) to maintain stable Nav1.6 expression. Cells were transfected at 80%–90% confluence with equal amount (1 μg each) of plasmid pairs using Lipofectamine 2000 (Invitrogen) according to manufacturer's instructions. HEK‐Nav1.6 cells were washed and replated at very low density prior to electrophysiological recordings (Ali et al., 2016, 2018; Scala et al., 2018; Wadsworth et al., 2019).
HEK‐Nav1.6 cells transfected with GFP or FGF14‐GFP were plated at low density on glass cover slips for 3–4 hr and subsequently transferred to the recording chamber. Recordings were performed at room temperature (20–22°C) 24 hr posttransfection using a MultiClamp 700B amplifier (Molecular Devices, Sunnyvale, CA). The composition of recording solutions consisted of the following salts; extracellular (mM): 140 NaCl, 3 KCl, 1 MgCl2, 1 CaCl2, 10 HEPES, 10 glucose, pH 7.3; intracellular (mM): 130 CH3O3SCs, 1 EGTA, 10 NaCl, 10 HEPES, pH 7.3. Membrane capacitance and series resistance were estimated by the dial settings on the amplifier and compensated for electronically by 70%–75%. Data were acquired at 20 kHz and filtered at 5 kHz prior to digitization and storage. All experimental parameters were controlled by Clampex 9.2 software (Molecular Devices) and interfaced to the electrophysiological equipment using a Digidata 1,200 analog‐digital interface (Molecular Devices). Voltage‐dependent inward currents for HEK‐Nav1.6 cells were evoked by depolarization to test potentials between −100 mV and +60 mV from a holding potential of −70 mV followed by a voltage prestep pulse of −120 mV (Nav1.6). Steady‐state (fast) inactivation of Nav channels was measured with a paired‐pulse protocol. From the holding potential, cells were stepped to varying test potentials between −120 mV (Nav1.6) and +20 mV (prepulse) prior to a test pulse to −20 mV.
Current densities were obtained by dividing Na^+ current (INa) amplitude by membrane capacitance. Current–voltage relationships were generated by plotting current density as a function of the […]. Conductance (GNa) was calculated by the following equation: GNa=INa/Vm‐Erev where INa ^+ is the current amplitude at voltage Vm, and Erev is the Na^+ reversal potential. […]

**Q.** CC(=O)N[C@@H](Cc1ccccc1)C(=O)N[C@@H](CC(C)C)C(=O)N1CCC[C@H]1C(=O)N[C@@H](CCCCN)C(N)=O [FLPK] (Ac-FLPK-NH2) was tested. Which “Peak density (I Na)” value (FGF14-GFP, at −10 mV, mean ± SEM (n = 21), DMSO −16.8 ± 3.3, p < .05 vs FGF14-GFP (DMSO)) did it give?
**A.** Its value is −49.6 ± 7.2 pA/pF and −49.6 ± 7.2 (21) ^c pA/pF.

**Q.** And the Kact (FGF14-GFP, mean ± SEM (n = 11), DMSO 5.7 ± 0.4)?
**A.** The Kact was 5.7 ± 0.5 (11) ^h,i mV.

**Q.** What about the “Activation (V1/2)” value (FGF14-GFP, mean ± SEM (n = 11), DMSO −16.6 ± 1.0) of the same compound?
**A.** The value was −20.8 ± 1.5 mV and −20.8 ± 1.5 (11) mV.

**Q.** What about the “Steady-state Inactivation (V1/2)” value (FGF14-GFP, mean ± SEM (n = 11 in Table 3; n = 14 in text), DMSO −54.9 ± 1.1) of the same compound?
**A.** Its value is −59.2 ± 2.1 (11) mV.

**Q.** And the Kinact (FGF14-GFP, mean ± SEM (n = 14), DMSO 5.9 ± 0.9)?
**A.** The Kinact was 5.9 ± 0.6 (14) mV.

**Q.** And the “shift of V1/2 of activation vs DMSO control” value (FGF14 wild type, hyperpolarizing direction)?
**A.** Its value is −4 mV.

**Q.** What about the “effect on FGF14-dependent phenotypes of Nav1.6 currents” value (HEK-Nav1.6 FGF14-GFP) of the same compound?
**A.** Its value is “effectively restored I Na to values that were statistically comparable to the GFP + DMSO control; also recorded: inhibited previously reported modulatory effects of FGF14 (1b isoform) on Nav1.6 currents”.
